For four compounds, EC50 and IC50 results are on record in ChEMBL document CHEMBL1201862, “PubChem BioAssay data set” (2004).

Calls of active or inactive are those of the source. Rule as the data show it, for most assays here: actives have a measured EC50 and inactives only a lower limit.

Assay [1] deals with T1, Serine/threonine-protein phosphatase (Candida dubliniensis (strain CD36 / CBS 7987 / NCPF 3949 / NRRLY-17841) (Yeast), UniProt B9W6M3).
T1 sequence (B9W6M3 whole entry): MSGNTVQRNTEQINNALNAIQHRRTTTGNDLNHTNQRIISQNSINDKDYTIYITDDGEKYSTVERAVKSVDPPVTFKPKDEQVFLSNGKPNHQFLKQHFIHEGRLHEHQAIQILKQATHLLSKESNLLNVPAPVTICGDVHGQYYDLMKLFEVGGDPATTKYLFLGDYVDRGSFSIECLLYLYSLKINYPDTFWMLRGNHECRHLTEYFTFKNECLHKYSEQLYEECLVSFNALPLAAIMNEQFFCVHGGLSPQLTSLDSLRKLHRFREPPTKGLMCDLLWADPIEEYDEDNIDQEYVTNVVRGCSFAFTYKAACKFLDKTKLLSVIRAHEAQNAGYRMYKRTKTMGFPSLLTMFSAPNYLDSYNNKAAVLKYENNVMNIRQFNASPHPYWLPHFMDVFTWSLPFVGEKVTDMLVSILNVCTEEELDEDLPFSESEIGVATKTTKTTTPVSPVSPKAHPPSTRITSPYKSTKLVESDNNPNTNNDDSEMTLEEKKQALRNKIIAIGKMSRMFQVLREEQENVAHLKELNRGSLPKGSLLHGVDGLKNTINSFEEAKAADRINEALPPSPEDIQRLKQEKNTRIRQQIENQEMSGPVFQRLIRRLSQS
Put plainly: blockers of CaCl2-induced CDRE-lacZ signaling – S. cerevisiae, luminescence, secondary, dose response (AID 2388).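 Also: yeast reporter cells carrying a calcineurin-responsive lacZ construct stimulated with calcium chloride; luminescent beta-galactosidase reporter signal in whole cells rather than isolated phosphatase activity; potency for inhibition where a drop in reporter signal means calcineurin blockade.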 It counts as functional, cell-based.

The next assay in a line: cells. The class given is functional, cell-based.
Another assay deals with T2, Insulin-degrading enzyme (Homo sapiens, UniProt P14735).
T2 sequence (P14735 whole entry): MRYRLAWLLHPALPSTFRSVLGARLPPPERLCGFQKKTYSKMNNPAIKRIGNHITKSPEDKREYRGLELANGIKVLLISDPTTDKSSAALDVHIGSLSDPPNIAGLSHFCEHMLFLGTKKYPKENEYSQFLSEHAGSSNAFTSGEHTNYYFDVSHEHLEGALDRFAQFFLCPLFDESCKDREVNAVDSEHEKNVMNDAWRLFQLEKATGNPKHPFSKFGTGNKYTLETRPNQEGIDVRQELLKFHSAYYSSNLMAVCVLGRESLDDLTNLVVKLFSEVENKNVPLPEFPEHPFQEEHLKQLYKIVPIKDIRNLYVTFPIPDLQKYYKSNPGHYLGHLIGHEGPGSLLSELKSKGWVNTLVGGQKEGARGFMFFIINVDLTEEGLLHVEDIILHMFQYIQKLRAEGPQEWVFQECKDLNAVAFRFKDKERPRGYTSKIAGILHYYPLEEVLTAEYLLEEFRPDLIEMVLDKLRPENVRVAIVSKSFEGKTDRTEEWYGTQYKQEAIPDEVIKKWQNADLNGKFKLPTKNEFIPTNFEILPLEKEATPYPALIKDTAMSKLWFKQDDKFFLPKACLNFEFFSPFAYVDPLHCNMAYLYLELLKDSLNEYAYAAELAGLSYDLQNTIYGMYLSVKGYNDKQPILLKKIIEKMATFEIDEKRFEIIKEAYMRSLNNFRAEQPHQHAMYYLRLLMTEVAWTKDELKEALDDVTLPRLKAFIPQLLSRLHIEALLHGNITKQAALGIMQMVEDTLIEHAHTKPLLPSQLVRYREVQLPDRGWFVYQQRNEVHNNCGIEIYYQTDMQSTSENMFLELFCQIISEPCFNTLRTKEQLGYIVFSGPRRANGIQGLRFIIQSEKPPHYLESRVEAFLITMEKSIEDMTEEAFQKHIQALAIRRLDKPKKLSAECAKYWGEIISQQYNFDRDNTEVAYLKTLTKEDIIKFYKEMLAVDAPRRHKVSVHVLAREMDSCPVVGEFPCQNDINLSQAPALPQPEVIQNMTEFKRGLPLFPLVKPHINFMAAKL
Put plainly: recombinant IDE activation, cell-free – biochemical, fluorescence polarization, counter-screen for IDE activator project, dose response (AID 588681). (Polarisation of emitted light reports the rotation of a fluorescent probe.)

Assay [2] addresses T3, Ubiquitin-conjugating enzyme E2 N (Homo sapiens, UniProt P61088).
T3 sequence (P61088 whole entry): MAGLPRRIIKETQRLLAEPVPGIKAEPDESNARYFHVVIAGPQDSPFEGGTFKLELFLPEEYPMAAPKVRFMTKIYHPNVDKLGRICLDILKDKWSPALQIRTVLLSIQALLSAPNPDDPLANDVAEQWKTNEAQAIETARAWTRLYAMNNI
It counts as functional.

Assay [3] is described as follows: DRD fibroblast viability loss – cell-based, non-viral oncogenic, luminescence, dose response (AID 1934). It counts as functional. To be noted: Homo sapiens.
Assay [4] concerns the target Intestinal-type alkaline phosphatase (Homo sapiens, UniProt P09923). Put plainly: human intestinal alkaline phosphatase activators, dose response, biochemical, luminescence, uHTS hits (AID 463120). It counts as functional.
The next assay concerns the target T4, Protein RecA (Mycobacterium tuberculosis, UniProt P9WHJ3).
T4 sequence (P9WHJ3 whole entry): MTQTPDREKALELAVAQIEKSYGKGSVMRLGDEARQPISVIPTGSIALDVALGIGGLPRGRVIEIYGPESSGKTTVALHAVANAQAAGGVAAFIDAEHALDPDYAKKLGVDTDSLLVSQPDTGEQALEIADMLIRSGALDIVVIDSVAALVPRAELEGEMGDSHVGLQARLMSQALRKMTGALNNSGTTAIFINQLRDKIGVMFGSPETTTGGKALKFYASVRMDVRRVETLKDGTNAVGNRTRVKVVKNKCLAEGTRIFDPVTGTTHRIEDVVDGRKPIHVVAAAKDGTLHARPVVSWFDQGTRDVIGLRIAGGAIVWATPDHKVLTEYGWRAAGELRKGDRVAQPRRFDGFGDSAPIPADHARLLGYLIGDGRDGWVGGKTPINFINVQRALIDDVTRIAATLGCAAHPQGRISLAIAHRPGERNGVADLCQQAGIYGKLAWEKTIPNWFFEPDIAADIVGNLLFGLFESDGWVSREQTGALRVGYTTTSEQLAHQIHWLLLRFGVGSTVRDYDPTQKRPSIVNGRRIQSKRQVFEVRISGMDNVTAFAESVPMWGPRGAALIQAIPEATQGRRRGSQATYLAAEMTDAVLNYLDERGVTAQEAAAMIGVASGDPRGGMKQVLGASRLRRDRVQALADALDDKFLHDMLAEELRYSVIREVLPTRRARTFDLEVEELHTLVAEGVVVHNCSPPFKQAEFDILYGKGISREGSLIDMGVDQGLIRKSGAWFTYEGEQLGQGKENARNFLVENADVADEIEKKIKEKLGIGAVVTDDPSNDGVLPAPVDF
The assay can be described thus: Fluorescence Cell-Free Homogeneous Dose Retest to Identify Inhibitors of RecA-Intein Splicing Activity. [Related pubchem assays (depositor defined):AID2097, AID2223, AID489010, AID492950]. It counts as functional.

Chain of Intestinal-type alkaline phosphatase (P09923 whole entry): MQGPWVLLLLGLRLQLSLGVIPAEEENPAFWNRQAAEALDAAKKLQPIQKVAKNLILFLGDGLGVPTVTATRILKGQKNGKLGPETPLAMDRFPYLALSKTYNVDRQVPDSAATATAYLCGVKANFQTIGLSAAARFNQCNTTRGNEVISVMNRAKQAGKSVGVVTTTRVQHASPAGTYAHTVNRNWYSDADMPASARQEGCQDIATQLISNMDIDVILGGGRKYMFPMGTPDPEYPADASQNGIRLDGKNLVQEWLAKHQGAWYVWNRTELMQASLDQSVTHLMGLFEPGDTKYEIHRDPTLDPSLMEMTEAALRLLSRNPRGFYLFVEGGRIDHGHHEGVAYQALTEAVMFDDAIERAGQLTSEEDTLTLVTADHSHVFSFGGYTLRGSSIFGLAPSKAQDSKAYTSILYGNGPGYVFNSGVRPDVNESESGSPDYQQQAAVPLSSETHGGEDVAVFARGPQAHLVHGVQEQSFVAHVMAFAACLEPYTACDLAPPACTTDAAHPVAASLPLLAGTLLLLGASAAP

Consider `CCN1C(=Cc2sc3ccccc3[n+]2C)C=Cc2cccc(C)c21`, for which the EC50 is > 180 µM (inactive) in assay [1] and > 12 µM (not active) in the assay “cells”.
On to `CNC[C@H](Cc1ccccc1)NC[C@@H](Cc1cccc2ccccc12)NCCc1ccc(C)cc1`, for which the EC50 on Insulin-degrading enzyme is > 54.7 µM (inactive). Further, the IC50 in assay [2] is 11.5 µM (active).
In the case of `O=C(N/N=C/c1c(O)ccc2ccccc12)c1[nH]ncc1Br`, the values for the half-maximal effective concentration (EC50) in assay [3] and in assay [4] were 3.04 µM (active) and 7.56 µM (active), respectively.
Regarding `O=C(Cc1ccccc1Cl)NC1(O)C(=O)c2ccccc2C1=O`, the EC50 on Protein RecA is 8.18 µM (active).

One may read the EC50 as the midpoint of the concentration-response curve. What is called IC50 is the point on the concentration scale where inhibition reaches its midpoint.
